For one series, the system named is HT29 cells. Description: MTS cell viability assay, colon cancer cells. Type of series: cell-based. The note with it: colon cancer cell line, 24 h exposure, MTS; for IC50: Homo sapiens, HT-29. The protocol: (§1) Cell lines (CCD18 Co, HepG2 and MCF-7) were maintained in ATCC-formulated Eagle’s Minimum Essential Medium and HT29 was maintained in McCoy’s 5a Modified Medium supplemented with 10% fotal bovine serum (Atlas; Fort Collins, CO, USA), 10 mM HEPES solution, 100 mM L-glutamine penicillin streptomycin solution, 3 g/L glucose, and 1.5 g/L of sodium bicarbonate. Cells were maintained at 37°C with 5% CO2 in Corning 75 cm^2 culture flasks. Cells were exposed to a given isolate or known anticancer agent for 24 h. Following the appropriate treatments, cell viability was evaluated using an MTS assay according to the manufacturer’s instructions. All assays were performed at least three times and were monitored spectrophotometrically at 590 nm. Cell viability was recorded as percentage relative to vehicle solvent-treated control.
For orientation: Tetrazolium dyes change colour on reduction, which living cells bring about.

Another series relates to CCD18 Co cells. Kind of series: MTS cell viability assay, normal colon cells. The class given is cell-based. To be noted: normal colon cell line, 24 h exposure, MTS; for IC50: Homo sapiens, CCD-18Co. The procedure: as §1
For series [1], the target named is T1, CYP1A1 (Homo sapiens, UniProt P04798).
T1 sequence (P04798 1-512): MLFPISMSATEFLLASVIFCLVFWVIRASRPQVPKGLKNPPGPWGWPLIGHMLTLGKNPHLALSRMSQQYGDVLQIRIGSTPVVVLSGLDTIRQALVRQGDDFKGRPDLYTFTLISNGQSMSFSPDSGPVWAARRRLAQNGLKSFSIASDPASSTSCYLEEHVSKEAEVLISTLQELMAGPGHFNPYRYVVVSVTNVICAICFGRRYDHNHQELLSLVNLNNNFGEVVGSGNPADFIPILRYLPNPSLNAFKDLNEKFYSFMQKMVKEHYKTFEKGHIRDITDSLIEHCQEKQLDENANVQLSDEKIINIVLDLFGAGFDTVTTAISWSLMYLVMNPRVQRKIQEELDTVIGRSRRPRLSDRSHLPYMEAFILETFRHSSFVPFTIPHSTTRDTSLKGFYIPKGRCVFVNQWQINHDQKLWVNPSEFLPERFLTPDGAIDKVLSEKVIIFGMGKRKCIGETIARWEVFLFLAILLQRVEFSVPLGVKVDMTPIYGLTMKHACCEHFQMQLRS
To be noted: published value for known inhibitor; cited from earlier work.

Series [2] concerns the target T2, CYP1B1 (Homo sapiens, UniProt Q16678).
T2 sequence (Q16678 1-543): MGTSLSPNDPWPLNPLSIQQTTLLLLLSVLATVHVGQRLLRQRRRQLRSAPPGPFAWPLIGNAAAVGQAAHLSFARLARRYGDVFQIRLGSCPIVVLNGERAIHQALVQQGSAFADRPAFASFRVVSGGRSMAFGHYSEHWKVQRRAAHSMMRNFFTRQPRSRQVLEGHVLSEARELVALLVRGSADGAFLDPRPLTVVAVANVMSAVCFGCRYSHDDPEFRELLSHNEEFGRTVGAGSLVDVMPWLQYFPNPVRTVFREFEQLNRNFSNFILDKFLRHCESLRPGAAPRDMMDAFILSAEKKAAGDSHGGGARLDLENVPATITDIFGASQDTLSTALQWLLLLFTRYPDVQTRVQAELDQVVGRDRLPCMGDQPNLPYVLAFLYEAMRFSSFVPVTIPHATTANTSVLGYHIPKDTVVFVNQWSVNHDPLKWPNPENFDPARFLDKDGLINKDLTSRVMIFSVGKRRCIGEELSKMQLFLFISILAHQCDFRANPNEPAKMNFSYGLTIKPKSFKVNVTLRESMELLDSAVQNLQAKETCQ
To be noted: published value for known inhibitor; cited from earlier work.

Series [3] addresses T2, CYP1B1. Kind of series: Fluorometric CYP inhibition assay, ERes dealkylation. The class given is biochemical. To be noted: for nature of inhibition of CYP1B1 activity: Eadie-Hofstee analysis, reversible; for Ki: apparent Ki, ERes dealkylation.
Experimental: (§2) The test compounds were evaluated for their ability to inhibit the catalytic activity of human CYP1 enzymes by means of high throughput fluorometric detection assays conducted in 96-well microtitre plates as described elsewhere [16, 17]. 7-Ethoxyresorufin (ERes) was used as a substrate for detecting activity of CYP1B1 and 7-ethoxy-3-cyanocoumarin (CEC) was used as a substrate for both CYP1A1 and CYP1A2. Further, the substrates, 3-[2-(NN-diethyl-N-methylamino)ethyl]-7-methoxy-4methylcoumarin (AMMC), 7-benzyloxy-4-trifluoromethylcoumarin (BFC), and CEC were used as substrates for CYP2D6, CYP3A4, and CYP2C19, respectively. The reactions were monitored fluorometrically at 37°C, using a Varian Cary Eclipse fluorescence spectrophotometer.
(§3) IC50 and Ki values were determined by fitting the data in Sigma Plot (version 10.0) and enzyme kinetics module, using nonlinear regression analysis. The apparent Ki values were determined on the basis of visual inspection of Eadie-Hofstee and various statistics to evaluate goodness of fit, such as the size of the sum of squares of residuals, Akaike information criterion, and standard error (Enzyme kinetics module, version 1.3). The data listed represent the average values from three different determinations.
(§4) Data are expressed as mean percentage of control enzyme activity for three independent experiments.
Series [4] concerns the target T1, CYP1A1. Description: Fluorometric CYP inhibition assay, CEC dealkylation. To be noted: for IC50: recombinant CYP1A1, CEC 0.5 μM; for nature of inhibition of CYP1A1 activity: Eadie-Hofstee analysis, reversible; for Ki: apparent Ki, CEC dealkylation. The class given is biochemical.
Experimental: as §2, §3, §4
Series [5] relates to CYP1A1. Set-up: method as in PMID 10188874. The note with it: MCF-7 breast cancer cells; cited from earlier work.
The target in series [6] is T3, CYP2D6 (Homo sapiens, UniProt P10635). Kind of series: biochemical.
Experimental: as §2, §3, §4
The test system of another series is MCF-7 cells. Kind of series: MTS cell viability assay, breast cancer cells. Type of series: cell-based. To be noted: breast cancer cells, 24 h exposure, MTS.
A further series relates to HepG2 cells. Description: MTS cell viability assay, liver cancer cells. To be noted: liver cancer cells, 24 h exposure, MTS. The class given is cell-based. The protocol:
as §1

Series [7] concerns the target T4, CYP2C19 (Homo sapiens, UniProt P33261). Kind of series: Fluorometric CYP inhibition assay, CEC dealkylation. The class given is in vitro ADME. The note with it: recombinant CYP2C19, CEC 25 μM.
Experimental: as §2, §3, §4
Another series deals with CYP3A4 (Homo sapiens, UniProt P08684). Description: Fluorometric CYP inhibition assay, BFC debenzylation. Type of series: in vitro ADME.
The next series addresses T5, CYP1A2 (Homo sapiens, UniProt P05177).
T5 sequence (P05177 1-516): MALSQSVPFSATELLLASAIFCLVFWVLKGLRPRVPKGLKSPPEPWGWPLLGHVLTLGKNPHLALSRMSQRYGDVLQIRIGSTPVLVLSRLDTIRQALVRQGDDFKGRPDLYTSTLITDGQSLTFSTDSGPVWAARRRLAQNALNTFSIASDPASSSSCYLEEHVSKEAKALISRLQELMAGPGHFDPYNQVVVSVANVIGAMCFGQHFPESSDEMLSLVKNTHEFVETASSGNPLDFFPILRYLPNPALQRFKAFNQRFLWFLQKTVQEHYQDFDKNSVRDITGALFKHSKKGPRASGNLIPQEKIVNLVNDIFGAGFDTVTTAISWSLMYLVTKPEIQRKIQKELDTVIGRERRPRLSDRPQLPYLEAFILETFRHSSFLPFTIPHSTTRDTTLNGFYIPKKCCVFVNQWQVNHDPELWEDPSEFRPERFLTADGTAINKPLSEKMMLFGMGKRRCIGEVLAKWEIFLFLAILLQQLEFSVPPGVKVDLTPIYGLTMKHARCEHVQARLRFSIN
Kind of series: Fluorometric CYP inhibition assay, CEC dealkylation. The note with it: for IC50: recombinant CYP1A2, CEC 5 μM. The class given is biochemical.

For series [8], the target named is T4, CYP2C19. The note with it: read-out: published IC50 CYP2C19; published value for known inhibitor; cited from earlier work.
In series [9] the target is T3, CYP2D6. Kind of series: in vitro. To be noted: recombinant CYP2D6.
Experimental: as §2, §3, §4
The nature of series [10]: MTS cell viability assay, breast cancer cells. Type of series: cell-based. The note with it: human, MCF-7 breast cancer cells; at 60 μM, MCF-7; read-out: impact on cell viability.
Experimental: (§5) Cells were maintained at 37°C with 5% CO2 in Corning 75 cm^2 culture flasks. Cells were exposed to a given isolate or known anticancer agent for 24 h. Following the appropriate treatments, cell viability was evaluated using an MTS assay according to the manufacturer’s instructions [14]. All assays were performed at least three times and were monitored spectrophotometrically at 590 nm [15]. Cell viability was recorded as percentage relative to vehicle solvent-treated control.
Series [11] is described as follows: MTS cell viability assay, colon cancer cells. Type of series: cell-based. The note with it: human, HT29 colon cancer cells; at 60 μM, HT29; read-out: impact on cell viability. The procedure:
as §1

Series [12] in a line: MTS cell viability assay, liver cancer cells. Type of series: cell-based. To be noted: human, HepG2 liver cancer cells; at 60 μM, HepG2; read-out: impact on cell viability. The protocol: as §1
Series [13] can be described thus: MTS cell viability assay, normal colon cells. Type of series: cell-based. The note with it: human, CCD18 Co normal colon cells; at 60 μM, CCD18 Co; read-out: impact on cell viability. The protocol:
as §1

[14] abbreviates: recombinant CYP1B1, ERes 0.37 μM, read-out: IC50 CYP1B1.

Entries after “also recorded” stand apart in the source; their conditions may differ. Where two headings read alike, the source gives them in different places. Bounds are passed on as bounds.

T4 sequence (P33261 whole entry): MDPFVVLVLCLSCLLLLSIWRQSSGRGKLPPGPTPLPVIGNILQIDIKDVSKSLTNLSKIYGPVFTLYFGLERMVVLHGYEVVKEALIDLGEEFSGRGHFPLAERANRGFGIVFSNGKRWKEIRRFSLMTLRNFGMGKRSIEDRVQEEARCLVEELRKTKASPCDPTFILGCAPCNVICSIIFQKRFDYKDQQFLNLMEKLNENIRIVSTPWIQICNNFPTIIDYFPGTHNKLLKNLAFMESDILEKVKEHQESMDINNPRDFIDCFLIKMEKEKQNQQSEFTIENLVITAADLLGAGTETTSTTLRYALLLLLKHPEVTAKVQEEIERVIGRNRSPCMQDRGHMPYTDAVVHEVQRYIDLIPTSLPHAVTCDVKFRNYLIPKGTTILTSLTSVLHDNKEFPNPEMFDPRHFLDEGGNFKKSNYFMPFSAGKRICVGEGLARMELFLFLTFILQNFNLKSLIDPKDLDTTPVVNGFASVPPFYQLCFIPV
Chain of CYP3A4 (P08684 whole entry): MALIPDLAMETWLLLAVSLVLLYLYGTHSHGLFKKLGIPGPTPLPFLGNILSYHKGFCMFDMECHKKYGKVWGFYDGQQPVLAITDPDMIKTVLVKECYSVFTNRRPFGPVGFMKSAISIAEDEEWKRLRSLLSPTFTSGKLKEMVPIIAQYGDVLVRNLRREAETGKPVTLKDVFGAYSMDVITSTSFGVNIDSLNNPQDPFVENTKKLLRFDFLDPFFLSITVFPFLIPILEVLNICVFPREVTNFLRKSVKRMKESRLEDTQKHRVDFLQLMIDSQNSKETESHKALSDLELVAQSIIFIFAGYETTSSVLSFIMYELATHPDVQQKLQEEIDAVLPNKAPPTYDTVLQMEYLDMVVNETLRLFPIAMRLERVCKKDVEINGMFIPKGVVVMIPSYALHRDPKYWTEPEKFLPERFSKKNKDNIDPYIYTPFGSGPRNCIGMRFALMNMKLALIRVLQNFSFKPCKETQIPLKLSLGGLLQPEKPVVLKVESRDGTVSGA
T3 sequence (P10635 whole entry): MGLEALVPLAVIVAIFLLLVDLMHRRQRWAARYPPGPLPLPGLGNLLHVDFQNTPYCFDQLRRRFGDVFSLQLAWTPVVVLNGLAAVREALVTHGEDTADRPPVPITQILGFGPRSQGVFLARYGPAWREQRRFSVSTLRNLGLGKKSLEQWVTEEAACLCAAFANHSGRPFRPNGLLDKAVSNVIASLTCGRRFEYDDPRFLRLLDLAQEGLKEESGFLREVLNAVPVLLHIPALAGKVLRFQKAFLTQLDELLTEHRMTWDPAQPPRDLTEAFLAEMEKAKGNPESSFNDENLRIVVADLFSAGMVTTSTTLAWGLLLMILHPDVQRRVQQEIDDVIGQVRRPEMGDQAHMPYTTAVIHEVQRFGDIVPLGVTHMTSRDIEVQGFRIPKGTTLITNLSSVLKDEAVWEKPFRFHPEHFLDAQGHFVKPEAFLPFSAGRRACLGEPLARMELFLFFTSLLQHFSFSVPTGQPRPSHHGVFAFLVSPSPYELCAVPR
Experimental for CYP1A2: as §2, §3, §4
Experimental for CYP3A4: as §2, §3, §4
Experimental for MCF-7 cells: as §5

`O=c1[nH]cc(F)c(=O)[nH]1` [Fluorouracil, fluorouracil, reference compound]: the IC50 (commonly the midpoint of a concentration-inhibition curve) in the series with HT29 cells was found to be 23500 ± 1120 nM; in the series with CCD18 Co cells, 55500 ± 3710 nM.
Turning to `CC(=O)N1CCN(c2ccc(OCC3COC(Cn4ccnc4)(c4ccc(Cl)cc4Cl)O3)cc2)CC1` (centres unmarked) [ketoconazole, reference compound], the IC50 is under 10000 nM on CYP1A1 [1], under 10000 nM at CYP1B1 [2], 6300 ± 1700 nM at CYP1B1 [3] (setting [14]) and 40 ± 10 nM at CYP1A1 [4].
As to `O=c1c(O)c(-c2ccccc2)oc2cc(O)cc(O)c12` [galangin], the “nature of inhibition of DMBA-induced CYP1A1” value in the series on CYP1A1 [5] is on record as “noncompetitive, dose-dependent”.
As to `C/C(=C\C(=O)c1cc(O)c(Br)cc1O)CCCC(C)(C)O` [PBQ2, 7-hydroxycymopolone], the IC50 worked out at 2750 ± 960 nM against CYP2D6 [6]; 19800 ± 460 nM in the series with HT29 cells; 120 ± 60 nM on CYP2C19 [7]; 55600 ± 3280 nM in the series with CCD18 Co cells; 140 ± 40 nM on CYP1B1 [3] (setting [14]); 8310 ± 4670 nM on CYP3A4 (recombinant CYP3A4, BFC 50 μM, read-out: IC50 CYP3A4). Further, the figures for the 50% inhibitory concentration (IC50) at CYP1A2 and at CYP1A1 [4] were 10600 ± 6750 nM and 930 ± 260 nM, respectively. Besides, the “IC50 cell viability MCF-7” value with MCF-7 cells is reported as “NI (no impact (<10% inhibition at 60 μM))”. In addition, in the series on HepG2 cells, the “IC50 cell viability HepG” value is “NI (no impact (<10% inhibition at 60 μM))”. Further, the “nature of inhibition of CYP1B1 activity” value at CYP1B1 [3] was “partial noncompetitive inhibition”. The Ki is 4.7 nM at CYP1B1 [3] and 840 ± 70 nM at CYP1A1 [4]. Besides, the “nature of inhibition of CYP1A1 activity” value on CYP1A1 [4] is “uncompetitive inhibition”.
On to `CCC1(c2ccccc2)C(=O)NC(=O)N(Cc2ccccc2)C1=O` (single isomer, unassigned; (-)) [(−)-N-3-Benzyl-phenobarbital, reference compound], for which the figures for the IC50 on CYP2C19 [8] and on CYP2C19 [7] were 250 nM and 300 ± 10 nM, respectively.
As for `CC(C)(O)CCCC1(C)CC(=O)c2cc(O)c(Br)cc2O1` (centres unmarked) [PBQ1, 7-Hydroxycymopochromanone], the concentration for half-maximal inhibition (IC50) stood at 1030 ± 400 nM at CYP2D6 [9]; 1420 ± 140 nM against CYP1B1 [3] (human); 5070 ± 3540 nM at CYP3A4 (human, recombinant enzyme); 9750 ± 36.5 nM at CYP1A2 (human, probe 7-ethoxy-3-cyanocoumarin (CEC)). Further, the viability at 24 h, 60 µM in series [10], in series [11], in [12] and in series [13] was under 10% throughout. Further, in the series on MCF-7 cells, the “IC50 cell viability MCF-7” value is “NI (no impact (<10% inhibition at 60 μM))”. For the same compound, in the series with HT29 cells, the “IC50 cell viability HT29” value was “NI (no impact (<10% inhibition at 60 μM))”. Besides, the “IC50 cell viability HepG” value in the series with HepG2 cells was “NI (no impact (<10% inhibition at 60 μM))”. Also, the “IC50 cell viability CCD18 Co” value with CCD18 Co cells was “NI (no impact (<10% inhibition at 60 μM))”. For the same compound, at CYP1B1 [3], the “nature of inhibition of CYP1B1 activity” value was “uncompetitive inhibition”. Besides, the Ki turned out to be 260 ± 30 nM on CYP1B1 [3]; 9160 ± 4680 nM on CYP1A2 (apparent Ki, CEC dealkylation); 3070 ± 690 nM on CYP1A1 [4]. The “nature of inhibition of CYP1A2 activity” value on CYP1A2 (Eadie-Hofstee analysis, reversible) is given as “noncompetitive inhibition”. For the same compound, the “nature of inhibition of CYP1A1 activity” value on CYP1A1 [4] is recorded as “partial non competitive; also recorded: partial noncompetitive inhibition”.

The values above are taken from publication PMC3541164, “Cytotoxic and potent CYP1 inhibitors from the marine algae Cymopolia barbata” (Organic and Medicinal Chemistry Letters, 2012).
